Test [1] concerns the target T1, recombinant human B1 receptors (Homo sapiens, UniProt P46663).
T1 construct: host or cells: CHO (CHO-B1)
T1 sequence (P46663 1-353): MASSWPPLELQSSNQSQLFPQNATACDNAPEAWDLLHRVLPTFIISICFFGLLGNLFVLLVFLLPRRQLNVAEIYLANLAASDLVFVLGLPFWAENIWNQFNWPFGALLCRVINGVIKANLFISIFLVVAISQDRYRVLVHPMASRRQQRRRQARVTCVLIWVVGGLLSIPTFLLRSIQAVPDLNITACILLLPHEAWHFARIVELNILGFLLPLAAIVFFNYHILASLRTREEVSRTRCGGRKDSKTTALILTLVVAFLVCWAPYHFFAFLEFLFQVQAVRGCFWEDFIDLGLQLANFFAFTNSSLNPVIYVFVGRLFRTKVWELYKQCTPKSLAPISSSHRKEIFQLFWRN
Nature of the test: Functional assay: antagonist potency by cytosolic calcium measurement (fluo-4, plate reader fluorimeter) in CHO-B1 cells. It counts as cell-based. Conditions: CHO-B1 cells, inhibition of LysDABK (EC80)-evoked [Ca2+]i elevation; read-out: B1 func. The method, then: Assessment of Antagonist Potency at B1 and B2 Receptors In Vitro by Measurement of Cytosolic Calcium Ion Concentration with a Plate Reader Fluorimeter in Cells Expressing Recombinant Human B1 or B2 Receptors
Chinese hamster ovary (CHO) cells stably expressing recombinant human B1 (CHO-B1, Euroscreen) or B2 (CHO-B2, Perkin-Elmer) receptors were cultured in Dulbecco's Modified Eagle's Medium (DMEM) containing 10% Fetal Calf Serum (FCS), 100 U/ml penicillin, 0.1 mg/ml streptomycin, 0.25 μg/ml amphotericin B, 1% Minimum Essential Medium Eagle (MEM), non essential amino acid solution, […], 1% pyruvate (for the B2 cell line). Cells were kept at 37° C. in a humidified incubator in an atmosphere of 5% CO2/95% air and were passaged 1:4 three times a week. Cells were plated at 1.5-2.5×10^4 cell/well on standard 96-well microplates, measurements of cytosolic calcium ion concentration ([Ca^2+]i) were carried out 1-2 days after cell plating.
Measurements of [Ca^2+]i were carried out on CHO-B1 and CHO-B2 cells stably expressing human B1 and B2 receptors, respectively. Cells were grown in standard 96-well microplates and before the measurement were loaded with a fluorescent Ca^2+-sensitive dye, fluo-4/AM (2 μM): after removing the culture medium the dye was added to the cells (dissolved in assay buffer: 145 mM NaCl, 5 mM KCl, 2 mM MgCl2, 2 mM CaCl2, 10 mM HEPES, 20 mM D-glucose, 2 mM probenecid, 100 μl/well) and cells were incubated at 37° C. in a humidified incubator in an atmosphere of 5% CO2/95% air for 40-120 min. To stop dye loading cells were washed twice with assay buffer. After washing, various concentrations of the test compounds (diluted in extracellular medium from a DMSO stock solution, final DMSO concentration was <0.1%) or buffer were added to each well depending on the experimental setup. After incubation at 37° C. for 20-25 min. baseline and agonist-evoked changes of [Ca^2+]i were measured column by column with a plate reader fluorimeter (Fluoroskan Ascent, Labsystems). Excitation and detection of emission was carried out from the bottom of the plate. Filters used for Fluo-4: excitation filter—485 nm, emission filter—538 nm. The whole measurement process was performed at 37° C. and was controlled by custom software Inhibitory potency of the test compounds was assessed by measuring the reduction in the agonist-evoked [Ca^2+]i-elevation in the presence of different concentrations of the compounds. The agonists were LysDABK for CHO-B1, and bradykinin for CHO-B2 cells. Agonists were applied at an EC80 concentration, the EC80-values were derived from daily determined dose-response curves. Fluorescence data were expressed as ΔF/F (fluorescence change normalized to baseline). All treatments on a single plate were measured in multiple wells. Data from all wells with the same treatment were averaged and the average values were used for analysis. Inhibitory potency of a compound at a single concentration point was expressed as percent inhibition of the control agonist response. Sigmoidal concentration-inhibition curves were fitted to the data (derived from at least three independent experiments) and IC50-values were determined as the concentration that produces half of the maximal inhibition caused by the compound.

Test [2] has as its target T2, human recombinant bradykinin B1 receptor (Homo sapiens, UniProt P46663).
T2 construct: host or cells: CHO cells
T2 sequence (P46663 1-353): T1 sequence (P46663 1-353)
Nature of the test: Human recombinant bradykinin B1 receptor binding. The note with it: CHO cell membranes, [3H]-[Des-Arg10] Kallidin radioligand; read-out: B1 binding. As to the method:
1. Human Recombinant Bradykinin B1 Receptor Binding
Binding assays were carried out on human recombinant bradykinin) receptors (expressed in CHO cells) according to the Euroscreen Technical Data Sheet (Cat.No.:ES-091). 20 μg protein/tube was incubated with [3,4-prolyl-3,4-^3H(N)]-[Des-Arg^10] Kallidin as radioligand. Non specific binding was determined in the presence of 10 μM Lys-des-Arg^9-Bradykinin. The final incubation volume was 250 μl. Samples were incubated for 15 min. at 25° C. then were rapidly vacuum filtered through GF/B filters presoaked for at least 1 h in 0.5% PEI. Radioactivity was determined by liquid scintillation spectroscopy.

The structures appear in SMILES notation. Structures can show the parent of a compound that is named as a salt. A value given as a limit tells only on which side of the number the result lay.

With `O=C(CNC(=O)c1ccc(S(=O)(=O)Nc2ccccc2Oc2ccc(Cl)cc2Cl)cc1)NCCN1CCCC1` [Example 31, 4-[2-(2,4-Dichloro-phenoxy)-phenylsulfamoyl]-N-[(2-pyrrolidin-1-yl-ethylcarbamoyl)-methyl]-benzamide], the IC50 in test [1] was less than 20 nM. In test [2], the Ki was less than 20 nM.

In the case of `O=C(CNC(=O)c1ccc(S(=O)(=O)Nc2cc(F)ccc2Oc2ccc(F)cc2)cc1)NCCC1CCNCC1` [Example 13, 4-[5-Fluoro-2-(4-fluoro-phenoxy)-phenylsulfamoyl]-N-[(2-piperidin-4-yl-ethylcarbamoyl)-methyl]-benzamide hydrochloride], the IC50 in test [1] is less than 20 nM. Further, in test [2], the Ki is less than 20 nM.

As for `O=C(CNC(=O)c1ccc(S(=O)(=O)Nc2ccccc2Oc2ccc(Cl)cc2Cl)cc1)NCCCN1CCOCC1` [Example 27, 4-[2-(2,4-Dichloro-phenoxy)-phenylsulfamoyl]-N-[(3-morpholin-4-yl-propylcarbamoyl)-methyl]-benzamide], in test [1], the IC50 is less than 20 nM. Further, the Ki in test [2] was less than 20 nM.

Consider `O=C(CNC(=O)c1ccc(S(=O)(=O)Nc2ccccc2Oc2ccc(Cl)cc2Cl)cc1)NCCC1CCNCC1` [Example 22, 4-[2-(2,4-Dichloro-phenoxy)-phenylsulfamoyl]-N-[(2-piperidin-4-yl-ethylcarbamoyl)-methyl]-benzamide acetate], for which the IC50 in test [1] was less than 20 nM. Besides, the Ki in test [2] is less than 20 nM.

For the origin of these results see US20130029991A1, “New Phenylsulfamoyl Benzamide Derivatives as Bradykinin Antagonists” (priority 2006, published 2013).
